Laboratory results: ChEMBL document CHEMBL1136173, “Synthesis and nicotinic binding of novel phenyl derivatives of UB-165. Identifying factors associated with alpha7 selectivity” (Bioorg Med Chem Lett, 2003)

Assays:
[1] = target: Neuronal acetylcholine receptor subunit alpha-7 (Rattus norvegicus, UniProt Q05941); test: Binding affinity towards Nicotinic acetylcholine receptor alpha-7 using [3H]-MLA as radioligand
[2] = target: Neuronal acetylcholine receptor; alpha4/beta2 (Rattus norvegicus, UniProt P09483+P12390); test: Binding affinity towards Nicotinic acetylcholine receptor alpha4-beta2 using [3H]nicotine as radioligand; type: protein-complex assay
Chain of Neuronal acetylcholine receptor; alpha4/beta2 (P09483 whole entry): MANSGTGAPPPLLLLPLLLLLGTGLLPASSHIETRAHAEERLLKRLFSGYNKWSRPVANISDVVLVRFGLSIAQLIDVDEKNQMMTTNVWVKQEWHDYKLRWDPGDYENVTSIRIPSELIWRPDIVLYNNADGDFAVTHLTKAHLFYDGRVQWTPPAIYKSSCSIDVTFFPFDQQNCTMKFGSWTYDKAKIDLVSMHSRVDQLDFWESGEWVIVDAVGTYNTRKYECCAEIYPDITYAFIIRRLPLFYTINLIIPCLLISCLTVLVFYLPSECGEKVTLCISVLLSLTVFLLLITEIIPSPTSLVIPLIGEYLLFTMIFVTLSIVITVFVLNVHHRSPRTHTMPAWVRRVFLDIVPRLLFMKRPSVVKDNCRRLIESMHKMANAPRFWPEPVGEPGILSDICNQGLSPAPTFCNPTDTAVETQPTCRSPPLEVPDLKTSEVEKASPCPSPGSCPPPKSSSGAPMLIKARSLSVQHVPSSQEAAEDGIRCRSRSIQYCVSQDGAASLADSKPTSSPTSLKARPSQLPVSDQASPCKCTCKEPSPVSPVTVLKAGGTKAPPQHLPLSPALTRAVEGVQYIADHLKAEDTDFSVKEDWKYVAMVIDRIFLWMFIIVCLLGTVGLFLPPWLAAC
Chain of Neuronal acetylcholine receptor; alpha4/beta2 (P12390 whole entry): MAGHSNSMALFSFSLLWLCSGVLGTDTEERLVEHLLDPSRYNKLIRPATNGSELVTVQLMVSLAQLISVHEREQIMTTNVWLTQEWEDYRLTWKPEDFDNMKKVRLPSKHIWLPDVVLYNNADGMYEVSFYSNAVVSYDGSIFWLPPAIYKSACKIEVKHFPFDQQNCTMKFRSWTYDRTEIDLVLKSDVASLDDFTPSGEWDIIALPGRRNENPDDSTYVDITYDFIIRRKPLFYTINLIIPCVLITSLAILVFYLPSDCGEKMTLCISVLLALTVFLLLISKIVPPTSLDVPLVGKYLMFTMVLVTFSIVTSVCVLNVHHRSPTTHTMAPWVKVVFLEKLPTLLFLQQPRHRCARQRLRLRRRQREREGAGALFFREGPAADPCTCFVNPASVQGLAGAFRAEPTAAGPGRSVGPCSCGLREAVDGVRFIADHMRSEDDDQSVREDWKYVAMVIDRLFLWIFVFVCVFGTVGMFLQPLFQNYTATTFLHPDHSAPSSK

[3] = target: Neuronal acetylcholine receptor alpha3/beta4 (Homo sapiens); test: Binding affinity towards alpha3-beta4 subtype of neuronal nicotinic acetylcholine receptor (nAChR) using [3H]epibatidine as radioligand

Chain of Neuronal acetylcholine receptor subunit alpha-7 (Q05941 whole entry): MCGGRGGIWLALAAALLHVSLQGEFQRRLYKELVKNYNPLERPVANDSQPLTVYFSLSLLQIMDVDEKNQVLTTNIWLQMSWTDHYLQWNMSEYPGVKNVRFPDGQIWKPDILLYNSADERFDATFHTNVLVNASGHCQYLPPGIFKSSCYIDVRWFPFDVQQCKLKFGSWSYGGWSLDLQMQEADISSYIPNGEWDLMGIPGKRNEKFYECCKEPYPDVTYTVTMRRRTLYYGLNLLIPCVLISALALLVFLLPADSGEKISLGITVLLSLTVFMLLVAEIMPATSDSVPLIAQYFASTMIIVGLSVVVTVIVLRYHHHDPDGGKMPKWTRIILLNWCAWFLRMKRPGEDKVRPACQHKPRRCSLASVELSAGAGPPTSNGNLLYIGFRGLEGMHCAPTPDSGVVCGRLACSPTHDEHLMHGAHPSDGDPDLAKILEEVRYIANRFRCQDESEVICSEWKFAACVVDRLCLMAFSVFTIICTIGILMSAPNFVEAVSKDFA

Structure (SMILES)	Ki [1] [nM]	Ki [2] [nM]	Ki [3] [nM]
Clc1ccc(C2=CCC[C@@H]3CC[C@H]2N3)cn1	2760	–	–
C1=C(c2ccc(-c3ccccc3)nc2)C2CCC(CC1)N2 (centres undefined)	1310	21.4	–
C1=C(c2cccnc2-c2ccccc2)C2CCC(CC1)N2 (centres undefined)	> 50000	> 50000	> 50000
C1=C(c2cccnc2)C2CCC(CC1)N2 (centres undefined)	89	0.43	–
C1=C(c2cnccc2-c2ccccc2)C2CCC(CC1)N2 (centres undefined)	927	234	1990
C1=C(c2cncc(-c3ccccc3)c2)C2CCC(CC1)N2 (centres undefined)	16000	4.8	468
